US7772408B1, “Substituted 5-alkoxypsoralens as inhibitors of potassium channel activity in lymphocytes and other cells” (The Regents of the University of California, priority 2002, dated 2010)
Where no end group is shown, it is not given here.

Legend:
[1] = test system: delayed-type hypersensitivity (DTH) response; details: mini-pigs, cited from earlier work
Nav1.2 = molecular target: T1, Nav1.2 (Mus musculus, UniProt B1AWN6); test: Whole-cell patch-clamp, sodium channel Nav1.2 (N1E-115); assay type: cell-based; details: ratio Kd Nav1.2/Kd Kv1.3
T1 construct: endogenous in cells

LogP determined by HPLC = assay type: physicochemical
Kv1.3 [2] = molecular target: Kv1.3 (UniProt P16390); test: Whole-cell patch-clamp on a cell line stably expressing Kv1.3; assay type: cell-based; parameters: Kd Kv1.3; other: whole-cell patch-clamp, cell line stably expressing Kv1.3; Kd Kv1.3; mean ± S.D; Kd Kv1.3 (cloned); other: whole-cell patch-clamp, three to five concentrations, n = 3; details: whole-cell patch-clamp, cell line stably expressing Kv1.3; mean ± S.D.
Procedure: (§1) Electrophysiology. All experiments were conducted in the whole-cell configuration of the patch-clamp technique with a holding potential of −80 mV on a cell line stably expressing Kv1.3. Pipette resistances averaged 2.0 MΩ, and series resistance compensation of 80% was employed when currents exceeded 2 nA. Kv1.3 currents were elicited by repeated 200 ms or 2 sec pulses from −80 mV to 40 mV, applied at intervals of 30 or 60 s.

Kv1.3 [3] = molecular target: Kv1.3 (UniProt P16390); test: as above; assay type: cell-based; details: FIG. 1A / 1B
Procedure: as §1

potassium channels = details: background statement; read-out: Kd, block of potassium channels; cited from earlier work

T1 sequence (B1AWN6 whole entry): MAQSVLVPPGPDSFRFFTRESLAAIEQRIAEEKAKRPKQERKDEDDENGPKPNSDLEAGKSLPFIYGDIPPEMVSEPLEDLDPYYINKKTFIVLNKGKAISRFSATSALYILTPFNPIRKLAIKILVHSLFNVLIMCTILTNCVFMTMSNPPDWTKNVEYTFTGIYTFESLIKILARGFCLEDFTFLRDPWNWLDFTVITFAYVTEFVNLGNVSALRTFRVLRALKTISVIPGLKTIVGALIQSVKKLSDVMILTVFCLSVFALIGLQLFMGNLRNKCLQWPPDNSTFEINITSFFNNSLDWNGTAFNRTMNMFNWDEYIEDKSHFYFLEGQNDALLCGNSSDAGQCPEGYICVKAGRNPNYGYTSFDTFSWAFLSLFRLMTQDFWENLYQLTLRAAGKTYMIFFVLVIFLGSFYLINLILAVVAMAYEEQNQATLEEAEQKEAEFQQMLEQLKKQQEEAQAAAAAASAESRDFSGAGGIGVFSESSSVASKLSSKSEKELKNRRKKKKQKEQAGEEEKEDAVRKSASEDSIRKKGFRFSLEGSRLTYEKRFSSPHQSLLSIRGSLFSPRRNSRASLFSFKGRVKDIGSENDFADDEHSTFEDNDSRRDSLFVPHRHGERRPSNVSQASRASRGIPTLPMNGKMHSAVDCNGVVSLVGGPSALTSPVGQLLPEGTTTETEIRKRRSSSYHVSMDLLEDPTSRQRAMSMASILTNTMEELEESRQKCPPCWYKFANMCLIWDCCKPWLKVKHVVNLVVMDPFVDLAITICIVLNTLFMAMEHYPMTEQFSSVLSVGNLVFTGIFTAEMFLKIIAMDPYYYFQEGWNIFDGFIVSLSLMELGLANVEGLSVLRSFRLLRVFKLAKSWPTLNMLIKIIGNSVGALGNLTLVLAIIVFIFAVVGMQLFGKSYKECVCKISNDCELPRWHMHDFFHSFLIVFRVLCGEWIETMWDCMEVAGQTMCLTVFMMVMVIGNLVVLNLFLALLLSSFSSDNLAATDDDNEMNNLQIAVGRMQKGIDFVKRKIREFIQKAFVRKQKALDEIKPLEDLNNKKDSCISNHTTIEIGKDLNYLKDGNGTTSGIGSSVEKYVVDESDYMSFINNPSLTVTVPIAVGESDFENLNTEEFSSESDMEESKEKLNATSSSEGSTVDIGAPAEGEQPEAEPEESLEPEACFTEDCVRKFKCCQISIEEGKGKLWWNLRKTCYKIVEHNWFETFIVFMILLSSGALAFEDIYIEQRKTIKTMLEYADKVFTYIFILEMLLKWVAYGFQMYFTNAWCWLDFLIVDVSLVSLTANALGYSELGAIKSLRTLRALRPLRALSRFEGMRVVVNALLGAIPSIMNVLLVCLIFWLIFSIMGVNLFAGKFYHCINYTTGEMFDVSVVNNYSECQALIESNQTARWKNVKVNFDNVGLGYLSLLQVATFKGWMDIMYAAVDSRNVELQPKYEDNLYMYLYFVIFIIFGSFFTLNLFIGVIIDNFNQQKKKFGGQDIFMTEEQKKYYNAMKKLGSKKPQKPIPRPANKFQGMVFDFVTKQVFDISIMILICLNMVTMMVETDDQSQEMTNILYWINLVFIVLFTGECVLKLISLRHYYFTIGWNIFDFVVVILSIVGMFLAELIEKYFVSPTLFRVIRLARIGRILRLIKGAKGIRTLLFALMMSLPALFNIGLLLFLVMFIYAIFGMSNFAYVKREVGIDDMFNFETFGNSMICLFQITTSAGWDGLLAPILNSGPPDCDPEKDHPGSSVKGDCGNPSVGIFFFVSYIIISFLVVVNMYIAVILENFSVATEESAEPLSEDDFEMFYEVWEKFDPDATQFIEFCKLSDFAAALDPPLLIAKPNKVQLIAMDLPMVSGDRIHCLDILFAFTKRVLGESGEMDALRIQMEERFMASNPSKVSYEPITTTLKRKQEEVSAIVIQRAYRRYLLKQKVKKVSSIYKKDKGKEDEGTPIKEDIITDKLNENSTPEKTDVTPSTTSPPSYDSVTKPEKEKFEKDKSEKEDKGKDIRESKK

## C=C1C[C@@]2(O)[C@@H]3CC[C@@]4(C)[C@@H]5C=CC(=O)OC[C@]5(C(C)OC(C)=O)[C@@H](OC(C)=O)[C@@H](OC(C)=O)[C@@H]4[C@@]3(C)[C@H](OC(C)=O)[C@H](OC(C)=O)[C@@]2(C)C2(C(=O)OC)O[C@H]12 (stereo partly drawn) [correolide]
[1]
  suppression of primary DTH response: effectively suppress
  suppression of secondary DTH response: much less effective

## O=c1ccc2c(OCCc3ccccc3)c3ccoc3cc2o1 [J 09, 4-(2-Phenylethoxy)-7H-furo[3,2-g][1]benzopyran-7-one]
Nav1.2
  S (selectivity over Nav1.2), S = Kd Nav1.2/Kd Kv1.3: 41
LogP determined by HPLC
  chromatographic logP: 3.55
other
  melting point: 154.5 °C
Kv1.3 [2]
  Kd: 169 ± 16 nM

## O=c1ccc2c(OCc3ccccc3)c3ccoc3cc2o1 [5-BOP, 4-Benzyloxy-7H-furo[3,2-g][1]benzopyran-7-one]
Nav1.2
  S (selectivity over Nav1.2), S = Kd Nav1.2/Kd Kv1.3: 43
LogP determined by HPLC
  chromatographic logP: 3.25
other
  melting point: 136 °C
Kv1.3 [2]
  Kd: 350 ± 72 nM

## O=c1ccc2c(OCCCCCc3ccccc3)c3ccoc3cc2o1 [J 22, 4-(5-Phenylpentoxy)-7H-furo[3,2-g][1]benzopyran-7-one]
Nav1.2
  S (selectivity over Nav1.2), S = Kd Nav1.2/Kd Kv1.3: 262
LogP determined by HPLC
  chromatographic logP: 4.71
other
  melting point: 94.5 °C
Kv1.3 [2]
  Kd: 6.1 ± 0.7 nM

## CC(COc1c2ccoc2cc2oc(=O)ccc12)c1ccccc1 (stereo not drawn) [J 12, R,S-4-(2-Phenylpropoxy)-7H-furo[3,2-g][1]benzopyran-7-on]
Nav1.2
  S (selectivity over Nav1.2), S = Kd Nav1.2/Kd Kv1.3: 25
LogP determined by HPLC
  chromatographic logP: 3.87
other
  melting point: 141.5 °C
Kv1.3 [2]
  Kd: 72 ± 12 nM

## O=c1ccc2c(OCCCCc3ccccc3)c3ccoc3cc2o1 [J 19 (Psora 4), 4-(4-Phenylbutoxy)-7H-furo[3,2-g][1]benzopyran-7-one]
LogP determined by HPLC
  chromatographic logP: 4.33

## O=c1ccc2c(OCCCc3ccccc3)c3ccoc3cc2o1 [J 15, 4-(3-Phenylpropoxy)-7H-furo[3,2-g][1]benzopyran-7-one]
Kv1.3 [3]
  inhibition of Kv1.3 current: dose-dependent inhibition
Nav1.2
  S (selectivity over Nav1.2), S = Kd Nav1.2/Kd Kv1.3: 397
LogP determined by HPLC
  chromatographic logP: 3.97
other
  melting point: 109 °C
Kv1.3 [2]
  Kd: 6.3 ± 1 nM

## O=c1ccc2c(OCc3ccc(-c4ccccc4)cc3)c3ccoc3cc2o1 [J 20, 5-Biphenylmethoxypsoralen]
Nav1.2
  S (selectivity over Nav1.2), S = Kd Nav1.2/Kd Kv1.3: 286
LogP determined by HPLC
  chromatographic logP: 4.4
other
  melting point: 187 °C
Kv1.3 [2]
  Kd: 3.5 ± 0.5 nM

## COc1c2ccoc2cc2oc(=O)ccc12 [5-MOP, 5-Methoxypsoralen]
Potassium channels
  Kd: 100000 nM

## O=c1ccc2c(OC/C=C/c3ccccc3)c3ccoc3cc2o1 [J 16, trans-4-(3-Phenyl-2-propenyloxy)-7H-furo[3,2-g][1]benzopyran-7-on]
Nav1.2
  S (selectivity over Nav1.2), S = Kd Nav1.2/Kd Kv1.3: 41
LogP determined by HPLC
  chromatographic logP: 3.79
other
  melting point: 140 °C
Kv1.3 [2]
  Kd: 172 ± 37 nM

## O=c1ccc2c(OC(c3ccccc3)c3ccccc3)c3ccoc3cc2o1 [J 17, 4-Diphenylmethoxy-7H-furo[3,2-g][1]benzopyran-7-on]
Nav1.2
  S (selectivity over Nav1.2), S = Kd Nav1.2/Kd Kv1.3: 38
LogP determined by HPLC
  chromatographic logP: 4.12
other
  melting point: 173 °C
Kv1.3 [2]
  Kd: 68 ± 12 nM

## O=c1ccc2c(OCC3CCCCC3)c3ccoc3cc2o1 [J 14, 4-Cyclohexylmethoxy-7H-furo[3,2-g][1]benzopyran-7-on]
Nav1.2
  S (selectivity over Nav1.2), S = Kd Nav1.2/Kd Kv1.3: 48
LogP determined by HPLC
  chromatographic logP: 4.41
other
  melting point: 153.5 °C
Kv1.3 [2]
  Kd: 138 ± 17 nM

## MgTX: Kv1.3 blocker (TIINVKCTSPKQCLPPCKAQFGQSAGAKCMNGKCKCYPH; ends and bridges not checked; cysteine pairing not given here; UniProt P40755 1-39, looked up)
[1]
  suppression of primary DTH response: effectively suppress
  suppression of secondary DTH response: much less effective

## O=c1ccc2c(OCCC3CCCCC3)c3ccoc3cc2o1 [J 23, 4-(2-Cyclohexylethoxy)-7H-furo[3,2-g][1]benzopyran-7-on]
Nav1.2
  S (selectivity over Nav1.2), S = Kd Nav1.2/Kd Kv1.3: 11
LogP determined by HPLC
  chromatographic logP: 4.82
other
  melting point: 117 °C
Kv1.3 [2]
  Kd: 132 ± 33 nM

## O=c1ccc2c(OCCCC3CCCCC3)c3ccoc3cc2o1 [J 21, 4-(3-Cyclohexylpropoxy)-7H-furo[3,2-g][1]benzopyran-7-on]
Nav1.2
  S (selectivity over Nav1.2), S = Kd Nav1.2/Kd Kv1.3: 8
LogP determined by HPLC
  chromatographic logP: 5.34
other
  melting point: 115 °C
Kv1.3 [2]
  Kd: 144 ± 43 nM
